Test results as given in ChEMBL document CHEMBL4507270 (2021).

How the values were obtained:
[1] = target: Protein-tyrosine kinase 6 (Homo sapiens) (UniProt Q13882)
[2] = target: Serine/threonine-protein kinase ULK2 (Homo sapiens) (UniProt Q8IYT8)
[3] = target: Atypical kinase COQ8A, mitochondrial (Homo sapiens) (UniProt Q8NI60)
[4] = target: Serine/threonine-protein kinase Chk1 (Homo sapiens) (UniProt O14757)
[5] = target: D(2) dopamine receptor (Homo sapiens, UniProt P14416); details: Compound concentration 10.0 uM
[6] = target: Serine/threonine-protein kinase tousled-like 1 (Homo sapiens) (UniProt Q9UKI8)
[7] = target: Serine/threonine-protein kinase MRCK alpha (Homo sapiens) (UniProt Q5VT25)
[8] = test system: Phosphatidylinositol 4,5-bisphosphate 3-kinase catalytic subunit alpha isoform (Homo sapiens), P42336 [C420R]
[9] = target: Tyrosine-protein kinase JAK2 (Homo sapiens) (UniProt O60674)
[10] = target: Receptor tyrosine-protein kinase erbB-4 (Homo sapiens) (UniProt Q15303)
[11] = target: Cyclin-dependent kinase 5 (Homo sapiens) (UniProt Q00535)
[12] = test system: Receptor-type tyrosine-protein kinase FLT3 (Homo sapiens), P36888 [UNDEFINED MUTATION]
Receptor-type tyrosine-protein kinase FLT3 (Homo sapiens), P36888 [UNDEFINED MUTATION], sequence (P36888 whole entry, looked up, change not shown, canonical isoform): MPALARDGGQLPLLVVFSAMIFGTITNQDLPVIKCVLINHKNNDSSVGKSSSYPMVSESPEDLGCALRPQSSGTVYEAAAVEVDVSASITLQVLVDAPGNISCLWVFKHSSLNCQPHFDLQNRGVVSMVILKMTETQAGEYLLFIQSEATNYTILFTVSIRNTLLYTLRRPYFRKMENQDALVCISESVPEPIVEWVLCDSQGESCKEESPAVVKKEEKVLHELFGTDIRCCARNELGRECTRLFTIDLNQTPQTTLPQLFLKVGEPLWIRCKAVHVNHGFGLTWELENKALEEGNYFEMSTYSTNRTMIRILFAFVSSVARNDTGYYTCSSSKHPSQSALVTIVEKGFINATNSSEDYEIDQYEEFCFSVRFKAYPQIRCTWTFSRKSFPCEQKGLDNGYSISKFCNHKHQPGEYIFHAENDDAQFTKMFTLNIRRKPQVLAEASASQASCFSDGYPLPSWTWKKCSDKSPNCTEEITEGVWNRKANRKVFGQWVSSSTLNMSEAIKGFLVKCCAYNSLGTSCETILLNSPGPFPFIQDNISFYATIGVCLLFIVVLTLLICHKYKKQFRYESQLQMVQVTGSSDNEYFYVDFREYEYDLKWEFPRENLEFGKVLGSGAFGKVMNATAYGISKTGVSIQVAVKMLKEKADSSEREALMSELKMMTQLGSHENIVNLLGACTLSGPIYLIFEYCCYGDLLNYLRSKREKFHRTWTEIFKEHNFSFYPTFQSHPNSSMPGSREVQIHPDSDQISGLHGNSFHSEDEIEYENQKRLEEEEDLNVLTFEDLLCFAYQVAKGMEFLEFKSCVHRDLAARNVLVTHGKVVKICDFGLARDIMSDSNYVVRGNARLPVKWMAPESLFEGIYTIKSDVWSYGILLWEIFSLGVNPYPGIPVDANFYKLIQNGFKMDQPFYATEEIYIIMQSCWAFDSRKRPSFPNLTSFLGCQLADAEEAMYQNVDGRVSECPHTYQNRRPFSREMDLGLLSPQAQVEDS

[13] = target: Casein kinase I isoform alpha (Homo sapiens) (UniProt P48729)
Casein kinase I isoform alpha (Homo sapiens), sequence (P48729 2-337 limits assumed): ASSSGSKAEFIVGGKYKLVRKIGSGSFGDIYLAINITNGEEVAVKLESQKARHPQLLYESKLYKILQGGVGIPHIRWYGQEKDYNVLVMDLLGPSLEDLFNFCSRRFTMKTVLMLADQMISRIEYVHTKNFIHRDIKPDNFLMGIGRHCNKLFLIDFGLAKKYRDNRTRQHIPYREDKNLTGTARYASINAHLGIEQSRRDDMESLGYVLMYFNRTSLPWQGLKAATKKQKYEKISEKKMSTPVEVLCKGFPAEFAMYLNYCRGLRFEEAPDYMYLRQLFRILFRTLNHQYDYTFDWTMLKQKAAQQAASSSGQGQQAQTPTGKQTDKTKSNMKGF

[14] = target: Homeodomain-interacting protein kinase 2 (Homo sapiens) (UniProt Q9H2X6)
[15] = target: Serine/threonine-protein kinase Nek11 (Homo sapiens) (UniProt Q8NG66)
Serine/threonine-protein kinase Nek11 (Homo sapiens), sequence (Q8NG66 whole entry): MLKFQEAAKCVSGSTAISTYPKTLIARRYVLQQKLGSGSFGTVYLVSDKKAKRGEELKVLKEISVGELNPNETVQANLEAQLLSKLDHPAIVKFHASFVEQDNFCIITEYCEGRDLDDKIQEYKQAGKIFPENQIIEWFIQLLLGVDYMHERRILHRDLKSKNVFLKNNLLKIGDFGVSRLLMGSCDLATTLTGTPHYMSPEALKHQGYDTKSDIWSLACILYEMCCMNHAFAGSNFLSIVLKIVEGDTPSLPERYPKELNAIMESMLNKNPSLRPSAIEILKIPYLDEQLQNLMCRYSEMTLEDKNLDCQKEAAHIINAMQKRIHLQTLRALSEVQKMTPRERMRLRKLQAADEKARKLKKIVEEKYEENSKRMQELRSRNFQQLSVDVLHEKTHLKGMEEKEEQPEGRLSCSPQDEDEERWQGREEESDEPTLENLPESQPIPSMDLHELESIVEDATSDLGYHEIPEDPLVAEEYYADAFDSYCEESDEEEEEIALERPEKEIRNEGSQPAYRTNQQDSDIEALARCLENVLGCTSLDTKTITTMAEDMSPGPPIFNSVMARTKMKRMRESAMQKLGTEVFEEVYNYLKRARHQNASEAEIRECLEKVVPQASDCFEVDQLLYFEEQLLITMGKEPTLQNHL

[16] = target: Serine/threonine-protein kinase PAK 4 (Homo sapiens) (UniProt O96013)
[17] = target: MAP/microtubule affinity-regulating kinase 3 (Homo sapiens) (UniProt P27448)
[18] = target: Death-associated protein kinase 1 (Homo sapiens) (UniProt P53355)
[19] = test system: Tyrosine-protein kinase ABL1 (Homo sapiens), P00519 [T315I]
[20] = target: Sigma non-opioid intracellular receptor 1 (Homo sapiens) (UniProt Q99720); details: Compound concentration 10.0 uM
[21] = target: cGMP-dependent protein kinase 1 (Homo sapiens) (UniProt Q13976)
[22] = target: Tyrosine-protein kinase TXK (Homo sapiens) (UniProt P42681)
[23] = test system: Receptor-type tyrosine-protein kinase FLT3 (Homo sapiens), P36888 [UNDEFINED MUTATION]; remark: listed apart in the source
[24] = target: Leukocyte tyrosine kinase receptor (Homo sapiens) (UniProt P29376)
[25] = target: Ankyrin repeat and protein kinase domain-containing protein 1 (Homo sapiens) (UniProt Q8NFD2)
[26] = target: Serine/threonine-protein kinase PRP4 homolog (Homo sapiens) (UniProt Q13523)
[27] = target: NUAK family SNF1-like kinase 2 (Homo sapiens) (UniProt Q9H093)
[28] = target: Serine/threonine-protein kinase RIO2 (Homo sapiens) (UniProt Q9BVS4)
[29] = target: Receptor-type tyrosine-protein kinase FLT3 (Homo sapiens) (UniProt P36888)
[30] = target: Serine/threonine-protein kinase LATS1 (Homo sapiens) (UniProt O95835)
[31] = target: Mitogen-activated protein kinase kinase kinase kinase 1 (Homo sapiens) (UniProt Q92918)
[32] = target: Muscarinic acetylcholine receptor M5 (Homo sapiens) (UniProt P08912); details: Compound concentration 10.0 uM
Muscarinic acetylcholine receptor M5 (Homo sapiens), sequence (P08912 whole entry): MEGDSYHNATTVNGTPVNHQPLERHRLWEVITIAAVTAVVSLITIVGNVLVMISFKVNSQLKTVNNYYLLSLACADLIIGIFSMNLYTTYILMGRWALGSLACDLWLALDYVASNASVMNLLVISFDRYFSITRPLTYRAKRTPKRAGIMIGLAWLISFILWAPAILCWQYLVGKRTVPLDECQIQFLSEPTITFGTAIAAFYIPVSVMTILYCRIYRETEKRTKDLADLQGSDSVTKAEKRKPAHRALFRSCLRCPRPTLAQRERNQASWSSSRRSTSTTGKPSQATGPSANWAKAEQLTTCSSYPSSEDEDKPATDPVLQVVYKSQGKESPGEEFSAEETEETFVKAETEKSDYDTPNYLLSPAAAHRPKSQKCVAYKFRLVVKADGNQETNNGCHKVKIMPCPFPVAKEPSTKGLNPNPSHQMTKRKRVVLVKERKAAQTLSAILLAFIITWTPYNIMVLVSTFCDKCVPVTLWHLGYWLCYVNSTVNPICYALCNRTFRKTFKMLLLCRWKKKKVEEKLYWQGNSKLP

[33] = target: Delta-type opioid receptor (Homo sapiens, UniProt P41143); details: Compound concentration 10.0 uM
[34] = target: Serine/threonine-protein kinase Nek2 (Homo sapiens) (UniProt P51955)
Serine/threonine-protein kinase Nek2 (Homo sapiens), sequence (P51955 whole entry): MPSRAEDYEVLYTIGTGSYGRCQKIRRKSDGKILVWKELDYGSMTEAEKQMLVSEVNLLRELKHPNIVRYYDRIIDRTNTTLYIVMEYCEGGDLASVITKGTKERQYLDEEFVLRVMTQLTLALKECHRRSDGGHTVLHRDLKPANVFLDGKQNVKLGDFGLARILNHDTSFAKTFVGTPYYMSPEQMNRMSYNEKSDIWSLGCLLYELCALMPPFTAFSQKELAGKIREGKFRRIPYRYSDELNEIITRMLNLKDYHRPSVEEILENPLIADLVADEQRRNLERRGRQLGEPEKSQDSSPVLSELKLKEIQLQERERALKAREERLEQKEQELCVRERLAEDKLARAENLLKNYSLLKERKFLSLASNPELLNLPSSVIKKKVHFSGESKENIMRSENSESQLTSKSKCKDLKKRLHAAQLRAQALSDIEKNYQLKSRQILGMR

[35] = test system: Mast/stem cell growth factor receptor Kit (Homo sapiens), P10721 [V559D,V654A]
Mast/stem cell growth factor receptor Kit (Homo sapiens), P10721 [V559D,V654A], sequence (P10721 whole entry V559D/V654A): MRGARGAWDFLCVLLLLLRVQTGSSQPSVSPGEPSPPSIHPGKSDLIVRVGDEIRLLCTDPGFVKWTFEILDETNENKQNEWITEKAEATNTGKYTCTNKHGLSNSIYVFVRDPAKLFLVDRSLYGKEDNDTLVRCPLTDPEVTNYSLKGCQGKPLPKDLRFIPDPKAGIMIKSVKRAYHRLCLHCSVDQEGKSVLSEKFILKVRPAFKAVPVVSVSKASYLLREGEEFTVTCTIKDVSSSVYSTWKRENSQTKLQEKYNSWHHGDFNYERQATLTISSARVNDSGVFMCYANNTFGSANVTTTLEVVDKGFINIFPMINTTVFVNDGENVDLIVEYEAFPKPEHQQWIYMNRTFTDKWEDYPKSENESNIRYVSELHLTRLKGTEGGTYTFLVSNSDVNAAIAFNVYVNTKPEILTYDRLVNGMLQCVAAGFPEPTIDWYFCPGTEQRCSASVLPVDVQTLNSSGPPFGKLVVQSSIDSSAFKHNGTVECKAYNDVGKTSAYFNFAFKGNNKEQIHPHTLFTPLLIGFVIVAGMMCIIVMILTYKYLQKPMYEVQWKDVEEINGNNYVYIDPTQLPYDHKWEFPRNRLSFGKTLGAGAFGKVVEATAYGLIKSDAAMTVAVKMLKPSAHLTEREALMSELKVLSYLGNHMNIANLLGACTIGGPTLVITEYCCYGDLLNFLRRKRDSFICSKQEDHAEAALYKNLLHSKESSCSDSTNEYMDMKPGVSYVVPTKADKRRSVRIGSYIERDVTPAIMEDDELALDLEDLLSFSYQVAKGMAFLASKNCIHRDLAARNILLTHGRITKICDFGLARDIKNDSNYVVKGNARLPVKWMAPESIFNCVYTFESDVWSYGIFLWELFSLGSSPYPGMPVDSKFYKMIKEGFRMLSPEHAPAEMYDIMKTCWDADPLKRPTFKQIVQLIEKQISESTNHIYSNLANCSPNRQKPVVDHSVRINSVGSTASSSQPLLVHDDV

[36] = species: Rattus norvegicus; details: Compound concentration 10.0 uM
[37] = target: Calcium/calmodulin-dependent protein kinase type II subunit delta (Homo sapiens) (UniProt Q13557)
[38] = target: Calcium/calmodulin-dependent protein kinase type II subunit gamma (Homo sapiens) (UniProt Q13555)
Calcium/calmodulin-dependent protein kinase type II subunit gamma (Homo sapiens), sequence (Q13555 whole entry): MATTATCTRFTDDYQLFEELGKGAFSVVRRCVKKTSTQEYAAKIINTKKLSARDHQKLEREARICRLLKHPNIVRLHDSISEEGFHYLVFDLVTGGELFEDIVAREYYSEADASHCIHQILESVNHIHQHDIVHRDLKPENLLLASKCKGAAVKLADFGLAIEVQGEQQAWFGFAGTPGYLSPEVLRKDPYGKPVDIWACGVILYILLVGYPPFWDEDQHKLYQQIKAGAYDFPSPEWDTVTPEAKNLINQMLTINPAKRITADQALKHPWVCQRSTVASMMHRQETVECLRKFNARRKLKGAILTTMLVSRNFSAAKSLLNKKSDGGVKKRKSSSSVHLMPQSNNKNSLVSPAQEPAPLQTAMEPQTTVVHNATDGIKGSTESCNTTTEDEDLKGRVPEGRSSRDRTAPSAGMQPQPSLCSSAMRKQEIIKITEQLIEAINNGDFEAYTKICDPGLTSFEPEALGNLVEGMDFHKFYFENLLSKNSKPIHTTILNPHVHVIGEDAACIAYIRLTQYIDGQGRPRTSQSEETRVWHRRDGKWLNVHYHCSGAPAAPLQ

[39] = target: Mitogen-activated protein kinase kinase kinase 7 (Homo sapiens) (UniProt O43318)
[40] = target: Serine/threonine-protein kinase pim-1 (Homo sapiens) (UniProt P11309)
[41] = target: Calcium/calmodulin-dependent protein kinase type IV (Homo sapiens) (UniProt Q16566)
[42] = target: Mitotic checkpoint serine/threonine-protein kinase BUB1 (Homo sapiens) (UniProt O43683)
[43] = target: Interleukin-1 receptor-associated kinase 4 (Homo sapiens) (UniProt Q9NWZ3)
[44] = target: Fibroblast growth factor receptor 1 (Homo sapiens, UniProt P11362); experiment: Bayer in-house kinase assay with FGFR1
[45] = target: Beta-3 adrenergic receptor (Homo sapiens, UniProt P13945); experiment: GPCRScan assay: inhibition of Beta3; design: radioligand conc. used [nm] 0.2 – 0.5, parental cells HEK Flp-In
[46] = Compound concentration 1000.0 nM
[47] = Compound concentration 100.0 nM

Atypical kinase COQ8A, mitochondrial (Homo sapiens), sequence (Q8NI60 163-647 limits assumed): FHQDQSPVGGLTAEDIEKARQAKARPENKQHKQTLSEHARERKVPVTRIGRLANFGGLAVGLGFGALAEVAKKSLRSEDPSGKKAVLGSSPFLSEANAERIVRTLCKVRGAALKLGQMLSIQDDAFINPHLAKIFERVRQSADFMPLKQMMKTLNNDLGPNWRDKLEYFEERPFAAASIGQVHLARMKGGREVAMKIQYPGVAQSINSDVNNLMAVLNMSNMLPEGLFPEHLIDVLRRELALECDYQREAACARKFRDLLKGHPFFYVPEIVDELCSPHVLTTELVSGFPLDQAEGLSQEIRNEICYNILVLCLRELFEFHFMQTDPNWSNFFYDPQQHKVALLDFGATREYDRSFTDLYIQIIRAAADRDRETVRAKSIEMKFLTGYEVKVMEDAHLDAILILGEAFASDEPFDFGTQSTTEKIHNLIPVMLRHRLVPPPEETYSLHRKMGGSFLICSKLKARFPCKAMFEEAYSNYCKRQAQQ

Cc1cc(NC(=O)c2cccc(S(F)(F)(F)(F)F)c2)cc(-n2ccn3nc(-c4cccnc4)cc23)c1 [BAY-309]
residual activity [1, 46]: 100% | residual activity [2, 46]: 73.7% | residual activity [3, 46]: 82.8% | residual activity [4, 46]: 72% | inhibition [5]: 62.1% | residual activity [6, 46]: 100% | residual activity [7, 46]: 88.5% | residual activity [8, 46]: 97.1% | residual activity [9, 46]: 85.3% | residual activity [10, 46]: 98.1% | residual activity [11, 46]: 100% | residual activity [12, 46]: 66.1% | residual activity [13, 46]: 50.7% | residual activity [14, 46]: 85% | residual activity [15, 46]: 57.5% | residual activity [16, 46]: 91.8% | residual activity [17, 46]: 100% | residual activity [18, 46]: 100% | residual activity [19, 46]: 88.9% | inhibition [20]: 19.3% | residual activity [21, 46]: 100% | residual activity [22, 46]: 56.2% | residual activity [23, 46]: 95.8% | residual activity [24, 46]: 100% | residual activity [25, 46]: 100% | residual activity [26, 46]: 99.7% | residual activity [27, 46]: 100% | residual activity [28, 46]: 49.7% | residual activity [29, 46]: 100% | residual activity [30, 46]: 100% | residual activity [31, 46]: 82.1% | inhibition [32]: 8.74% | inhibition [33]: 58.5% | residual activity [34, 46]: 90.8% | residual activity [35, 46]: 100% | inhibition [36]: 67.8% | residual activity [37, 46]: 80% | residual activity [38, 46]: 100% | residual activity [39, 46]: 100% | residual activity [40, 46]: 95.6% | residual activity [41, 46]: 80.5% | residual activity [42, 46]: 100% | residual activity [43, 46]: 98.4%

Cc1cc(C)c(-n2ccn3nc(-c4cccnc4)cc23)cc1NC(=O)c1cc(C#N)cc(S(F)(F)(F)(F)F)c1 [BAY-826]
residual activity [1, 47]: 99.5% | residual activity [2, 47]: 100% | residual activity [3, 47]: 94.5% | residual activity [4, 47]: 86% | inhibition [5]: 8.74% | residual activity [6, 47]: 89.1% | residual activity [7, 47]: 100% | residual activity [8, 47]: 85.4% | residual activity [9, 47]: 81.8% | residual activity [10, 47]: 96.3% | residual activity [11, 47]: 95.6% | residual activity [12, 47]: 87.7% | residual activity [13, 47]: 67% | residual activity [14, 47]: 86.2% | residual activity [15, 47]: 86.1% | residual activity [16, 47]: 70.4% | residual activity [17, 47]: 85.1% | residual activity [18, 47]: 94.1% | residual activity [19, 47]: 33.4% | inhibition [20]: -4.84% | residual activity [21, 47]: 100% | residual activity [22, 47]: 98.3% | residual activity [23, 47]: 100% | residual activity [24, 47]: 32.8% | residual activity [25, 47]: 84.5% | residual activity [26, 47]: 80.6% | residual activity [27, 47]: 86.1% | residual activity [28, 47]: 74.2% | residual activity [29, 47]: 100% | residual activity [30, 47]: 83.9% | residual activity [31, 47]: 100% | IC50 [44]: > 10 µM (not active) | inhibition [32]: 16.1% | inhibition [33]: 18.7% | residual activity [34, 47]: 98.6% | residual activity [35, 47]: 89.4% | inhibition [36]: 59.1% | Ki ([45]; read-out: Ki): 7.1 µM | Ki ([45]; read-out: pKi (converted)): 6.68 µM | residual activity [37, 47]: 89.1% | residual activity [38, 47]: 93.4% | residual activity [39, 47]: 66.2% | residual activity [40, 47]: 92% | residual activity [41, 47]: 93.9% | residual activity [42, 47]: 99.8% | residual activity [43, 47]: 100%
